# Experiments:
# Adherent HEK293 cells [1] = assay: rAAV yield in adherent HEK293 cells in T75 flasks, capsid particle AAV8 ELISA; assay type: cell-based, human; settings: supernatant, vs control condition
# Method: (§1) Adherent HEK293 cell line (Agilent Technologies CAT #240073, Lot #0006218516) was cultivated in T75 flasks in a total volume of 23 mL with DMEM media containing 2% FCS. The cultivation of the cells was performed in an incubator at +37° C. and 5% CO2. 1 mM Ruxolitnib stock solution was prepared by dissolving the solid white powder in DMSO according to the manufacturer's instructions before use and stored at −20° C. During the last passage before transfection Ruxolitinib was added to the cell culture at defined concentrations. Every condition was tested in duplicates. At transfection day a confluence range of 60 to 80% was achieved.
# (§2) The statistical mean of the control condition was calculated as 100%.
# HEK293 cells [2] = assay: rAAV yield in 10 L bioreactor fermentation of HEK293 cells, ddPCR; assay type: cell-based, human; settings: supernatant
# Description: (§3) To test the effect of IFN inhibitor on the rAAV yield in large-scale bioreactor fermentation of HEK293 cells, 10 L bioreactors have been used. The results are shown in FIG. 3A (determination by capsid particlerAAV8 ELISA) and FIG. 3B (determination by ddPCR).
# suspension HEK293 (CL1) = assay: Lentivirus production in suspension HEK293 (CL1) shake flasks, p24 ELISA; assay type: cell-based, human; settings: vs untreated control (100%)
# Method: Transient transfection of HEK293 to produce Lentivirus was performed with pALDI-Lenti system (Aldevron). […]. The transfection mix consisted of the four-plasmid system, DMEM media and PEI as transfection reagent. The ratio between the used plasmids was 1:1:1:1 and the plasmid DNA PEI ration was 1:3.
# The ELISA quantifies structural HIV1 p24 capsid protein amount in cell culture and supernatant samples. It is a quantitative sandwich ELISA method. For titering lentiviral expression HIV1 p24 ELISA Kit ab218268 was used. To discriminate between viral p24 produced by lentivirus and associated p24 produced by HEK293 cells Cell Biolabs Quick Titer™ Kit including LV-Origine/TR30021/Lot #134641F and the Cell Biolabs Reference Standard #310809 was used. The virus pulldown technology ensures detection of lentiviral associated p24 only.
# The suspension HEK293 (CL1) experiments with a four-plasmid lentiviral transfection were performed in shake flasks with the same conditions as shown in Table 2. The statistical mean of the control condition was evaluated as 100%.
# Adherent HEK293 cells [3] = assay: rAAV yield in adherent HEK293 cells in T75 flasks, ddPCR; assay type: cell-based, human; settings: supernatant, vs control condition (100%)
# Method: as §1, §2
# HEK293 cells (CL1) [4] = assay: rAAV8 yield in suspension HEK293 (CL1) shaker flasks, vector genome ddPCR
# HEK293 cells [5] = assay: rAAV yield in 10 L bioreactor fermentation of HEK293 cells, rAAV8 capsid particle ELISA; assay type: cell-based, human; settings: supernatant, vs negative control without inhibitor
# Description: as §3
# HEK293 cells (CL1) [6] = assay: rAAV8 yield in suspension HEK293 (CL1) shaker flasks, capsid particle AAV8 ELISA
# Description: The commercially available enzyme-linked immunosorbent assay (ELISA; Progen AAV8 titration ELISA kit, cat. No. PRAAV8) uses a monoclonal antibody (ADK8) specific for a conformational epitope on assembled AAV8 capsids. This plate-immobilized antibody captures rAAV-8 particles from the specimen. Captured particles are then detected by the binding of biotinylated anti-AAV8 ADK8 since epitope targeted is repeatedly expressed on the assembled AAV8 capsid. Streptavidin peroxidase and a peroxidase substrate is then used for measuring bound anti-AAV8 and thus the concentration of AAV8 capsid. The color reaction was measured photometrically at 450 nm. The kit contains an rAAV2/8 particle preparation as calibration standard with a labelled rAAV8 particle concentration.
smiles,measurement,setting,value
"N#CC[C@H](C1CCCC1)n1cc(-c2ncnc3[nH]ccc23)cn1 [Ruxolitinib, (3R)-3-cyclopentyl-3-[4-(7H-pyrrolo[2,3-d]pyrimidin-4-yl)pyrazol-1-yl]propanenitrile]",capsid particle yield increase (ELISA),Adherent HEK293 cells [1]; 1 μM inhibitor,49%
same,capsid particle yield increase (ELISA),Adherent HEK293 cells [1]; 5 μM inhibitor,66.5%
same,capsid particle titer increase (ELISA),Adherent HEK293 cells [1]; 10 μM inhibitor,62%
same,improvement of rAAV yield by ddPCR,HEK293 cells [2],approximately 1.3 fold
same,lentiviral cp titer increase (p24 ELISA),suspension HEK293 (CL1); 5 μM inhibitor,40%
same,lentiviral cp titer increase (p24 ELISA),suspension HEK293 (CL1); 10 μM inhibitor,81.5%
same,vg yield increase (ddPCR),Adherent HEK293 cells [3]; 1 μM inhibitor,48%
same,vg yield increase (ddPCR),Adherent HEK293 cells [3]; 5 μM inhibitor,38.5%
same,vg yield increase (ddPCR),Adherent HEK293 cells [3]; 10 μM inhibitor,31%
same,rAAV yield in the cell suspension,"HEK293 cells (CL1) [4]; 5 μM ruxolitinib, cell suspension",about 2×10^13 vg/L cell culture
same,rAAV yield in the cell suspension,"HEK293 cells (CL1) [4]; 10 μM ruxolitinib, cell suspension",about 2×10^13 vg/L cell culture
same,increase of the vector genome (vg) in the cell suspension,"HEK293 cells (CL1) [4]; 10 μM ruxolitinib, cell suspension, vs negative control without inhibitor",about 2 fold
same,increase of the vector genome (vg) in the supernatant,"HEK293 cells (CL1) [4]; 10 μM ruxolitinib, supernatant, vs negative control without inhibitor",about 2.5 fold
same,improvement of rAAV8 capsid particles by ELISA,HEK293 cells [5],about 1.5 fold
same,effect on rAAV yield at higher concentrations,HEK293 cells (CL1) [6]; concentrations higher than 10 μM,reduction of the effect
same,increase of rAAV yield as determined in cell suspension,"HEK293 cells (CL1) [6]; optimal concentration 5 μM, vs yield in absence of inhibitor",about 3 fold

# — patent publication US20260242822A1, “METHODS AND KITS FOR THE IMPROVED FERMENTATIVE PRODUCTION OF A RECOMBINANT VIRUS” (priority 2022, published 2026)
